Patent US20260297060A1, “COMPOUNDS FOR THE DEGRADATION OF MUTANT BRAF” (C4 THERAPEUTICS, INC., priority 2023, published 2026)
Read-outs that look alike come from different tables or passages of the source.

Experiments:
[1] = Example 8 pharmacokinetics assay for PKPD study (plasma, tumor, liver); assay type: in vivo, BALB/c nude mice; settings: 10 mg/kg, p.o., single dose; for concentration at 6 h / concentration at 12 h / concentration at 1 h / concentration at 24 h: mouse, po
Experimental: For the PK and PD study, agents were administered to BALB/c nude mice bearing A375 human melanoma xenografts tumors. encorafenib, Compound 8, Compound 26, Compound 38, and Compound 39 were dosed p.o. once on day 1. Encorafenib was dosed at 35 mg/kg, Compound 8, Compound 26, Compound 38, and Compound 39 were dosed at 10 mg/kg. This study was non-GLP.
(§1) The plasma samples were collected at predetermined time points for PK analysis. For non-termination plasma collection, blood samples were collected into the 1.5 mL Eppendorf tubes containing 3 μL of 0.5 M EDTA-K2. For termination plasma collection, the mice were euthanized at predetermined time points post the treatment and the blood samples were collected into the 1.5 mL Eppendorf tubes containing 15 μL of 0.5 M EDTA-K2. And then the anticoagulant blood samples were centrifuged at 2,500 g at 4° C. for 15 minutes. The plasma samples were separated into 2 aliquots. The 1st was used for PK analysis, and the 2nd served as backup. The samples were stored at −80° C. before bioanalysis.
The tumor samples were collected at predetermined time points for PK and WB analysis. The tumor was dissected out and split into 3 parts. The 1st part was used for PK analysis, the 2nd part was used for WB analysis and the last one served as backup for study. The samples were transferred into pre-labeled tubes and quickly froze in liquid nitrogen within 2 minutes after dissection. The samples were stored at −80° C. before bioanalysis.
(§2) Liver samples were collected at predetermined time points for PK analysis. The left lobe of the liver was dissected out and split into 2 parts. The 1st part was used for PK analysis and the 2nd part served as the backup for the study. The samples were transferred into pre-labeled tubes and quickly froze in liquid nitrogen within 2 minutes after dissection. The samples were stored at −80° C. before bioanalysis.
The harvested plasma and liver samples were processed for pharmacokinetics analysis by LC-MS/MS with a concentration range of 0.200~200 ng/mL for encorafenib in plasma and liver homogenate, and 0.100-100 ng/ml in tumor homogenate, 1.00-1000 ng/mL for Compound 8 in plasma and 0.500~500 ng/ml in tumor and liver homogenate, 50.0~50,000 ng/mL for Compound 26 and Compound 38 in plasma, 5.0~5000 ng/ml in liver and 2.00~2000 ng/ml in tumor homogenate, 1.00-1000 ng/mL for Compound 39 in plasma and 0.500~500 ng/mL in liver and tumor homogenate.

[2] = Example 9 pharmacokinetics assay for efficacy study Part I and II (plasma, liver); assay type: in vivo, BALB/c nude mice; settings: mouse, po, 10 mg/kg, p.o., BID × 14 days, 6 h following treatment, ± SEM
Experimental: For efficacy study Part I, agents were tested in the A375 human melanoma xenografts. Compound 218 and Compound 157 were administered to BALB/c nude mice bearing A375 xenografts from day 0 and dosed twice a day (BID) for 14 days. Compound 218 and Compound 157 were dosed at 10 mg/kg via p.o.. Dabrafenib was administered from day 1 daily (QD) for 14 days and dosed at 100 mg/kg via p.o..
For efficacy study Part II, agents were tested in the A375 human melanoma xenografts model. Compound 133, Compound 144 and Compound 198 were administered to BALB/c nude mice bearing A375 xenografts from day 0 and dosed twice a day (BID) for 14 days. Compound 133, Compound 144 and Compound 198 were dosed at 10 mg/kg via p.o..
as §1, with “The” for “For non-termination plasma collection, blood samples were collected into the 1.5 mL Eppendorf tubes containing 3 μL of 0.5 M EDTA-K2. For termination plasma collection, the”, “treatment. The” for “treatment and the”
as §2
The harvested plasma and liver samples were processed for pharmacokinetics analysis by LC-MS/MS with a concentration range of 1.00-1,000 ng/mL for Dabrafenib in plasma and liver homogenate, 10.0-10,000 ng/mL for Compound 218, Compound 157, Compound 133, Compound 144 and Compound 198 in plasma and liver homogenate.

[3] = liver, 6 h, read-out: Concentration in Liver (mean ± SEM)
[4] = liver, 12 h, read-out: Concentration in Liver (mean ± SEM)
[5] = plasma, 1 h, read-out: Concentration in Plasma (mean ± SEM)
[6] = plasma, 6 h, read-out: Concentration in Plasma (mean ± SEM)
[7] = plasma, 12 h, read-out: Concentration in Plasma (mean ± SEM)
[8] = plasma, 24 h, read-out: Concentration in Plasma (mean ± SEM)
[9] = tumor, 1 h, read-out: Concentration in Tumor (mean ± SEM)
[10] = tumor, 6 h, read-out: Concentration in Tumor (mean ± SEM)
[11] = tumor, 12 h, read-out: Concentration in Tumor (mean ± SEM)
[12] = tumor, 24 h, read-out: Concentration in Tumor (mean ± SEM)
[13] = liver, read-out: Mean Concentration in Liver
[14] = plasma, read-out: Mean Concentration in Plasma

Row | SMILES | concentration at 6 h [1, 3] | concentration at 1 h [1, 5] | concentration at 6 h [1, 6] | concentration at 12 h [1, 7] | concentration at 1 h [1, 9] | concentration at 6 h [1, 10] | concentration at 12 h [1, 11] | concentration at 6 h [2, 13] | concentration at 6 h [2, 14] | further results
1 | CCN(C)S(=O)(=O)Nc1ccc(F)c(Oc2ccc3ncn(C4CC5(CCN(C6CCC(c7cc8c(cc7F)c(N7CCC(=O)NC7=O)nn8C)CC6)CC5)C4)c(=O)c3c2)c1C#N (single isomer, unassigned) [Compound 8, 6-[2-cyano-3-[[ethyl(methyl)sulfamoyl]amino]-6-fluoro-phenoxy]-3-[7-[4-[3-(2,4-dioxohexahydropyrimidin-1-yl)-5-fluoro-1-methyl-indazol-6-yl]cyclohexyl]-7-azaspiro[3.5]nonan-2-yl]-4-oxo-quinazoline] | 379 ± 79.8 ng/g | 2940 ± 149 ng/mL | 339 ± 60.3 ng/mL | 64.7 ± 16.8 ng/mL | 394 ± 17.6 ng/g | 139 ± 21.7 ng/g | 39.1 ± 5.77 ng/g |  |  | concentration at 12 h [1, 4]: 74.8 ± 11.3 ng/g; concentration at 24 h [1, 8]: 1.27 ± 0.2 ng/mL; concentration at 24 h [1, 12]: 8.52 ng/g
2 | CCN(C)S(=O)(=O)Nc1ccc(F)c(Oc2ccc3ncn([C@H]4COC5(CCC(N6CCC(c7cc8c(cc7F)c(N7CCC(=O)NC7=O)nn8C)C(F)(F)C6)CC5)C4)c(=O)c3c2)c1C#N (single isomer, unassigned) [Compound 38] | 25500 ± 3820 ng/g | 32000 ± 3960 ng/mL | 16400 ± 1500 ng/mL | 6810 ± 795 ng/mL | 3320 ± 523 ng/g | 3830 ± 736 ng/g | 1990 ± 415 ng/g |  |  | Concentration in Liver (mean ± SEM) ([1]; 12 h, 720 min): 11243 ± 2595 ng/g; Concentration in Plasma (mean ± SEM) ([1]; 24 h, 1440 min): 1797 ± 63.3 ng/mL; Concentration in Tumor (mean ± SEM) ([1]; 24 h, 1440 min): 369 ± 42.6 ng/g
3 | CCN(C)S(=O)(=O)Nc1ccc(F)c(Oc2ccc3ncn([C@H]4COC5(CCC(N6CCC(c7cc8c(cc7F)c(N7CCC(=O)NC7=O)nn8C)C(F)(F)C6)CC5)C4)c(=O)c3c2)c1C#N (single isomer, unassigned) [Compound 39] |  |  |  |  |  |  |  |  |  | Concentration in Plasma (mean ± SEM) ([1]; 1 h, 60 min): 34700 ± 3785 ng/mL; Concentration in Tumor (mean ± SEM) ([1]; 1 h, 60 min): 3423 ± 648 ng/g; Concentration in Liver (mean ± SEM) ([1]; 6 h, 360 min): 18200 ± 1735 ng/g; Concentration in Plasma (mean ± SEM) ([1]; 6 h, 360 min): 15700 ± 1358 ng/mL; Concentration in Tumor (mean ± SEM) ([1]; 6 h, 360 min): 4713 ± 256 ng/g; Concentration in Liver (mean ± SEM) ([1]; 12 h, 720 min): 5610 ± 455 ng/g; Concentration in Plasma (mean ± SEM) ([1]; 12 h, 720 min): 3973 ± 202 ng/mL; Concentration in Tumor (mean ± SEM) ([1]; 12 h, 720 min): 1510 ± 43.6 ng/g; Concentration in Plasma (mean ± SEM) ([1]; 24 h, 1440 min): 171 ± 20.8 ng/mL; Concentration in Tumor (mean ± SEM) ([1]; 24 h, 1440 min): 79.3 ± 25.3 ng/g
4 | CCN(C)S(=O)(=O)Nc1ccc(F)c(Oc2ccc3ncn([C@H]4COC5(CCN(C6CC7(C6)CN(c6cc8c(cc6F)c(N6CCC(=O)NC6=O)nn8C)C7)CC5)C4)c(=O)c3c2)c1C#N [Compound 26, (3R)-3-[6-[2-cyano-3-[[ethyl(methyl)sulfamoyl]amino]-6-fluoro-phenoxy]-4-oxo-quinazolin-3-yl]-8-[2-[3-(2,4-dioxohexahydropyrimidin-1-yl)-5-fluoro-1-methyl-indazol-6-yl]-2-azaspiro[3.3]heptan-6-yl]-1-oxa-8-azaspiro[4.5]decane] | 11800 ± 551 ng/g | 29100 ± 733 ng/mL | 20800 ± 2930 ng/mL | 4600 ± 1140 ng/mL | 1900 ± 320 ng/g | 3770 ± 478 ng/g | 1400 ± 226 ng/g |  |  | concentration at 12 h [1, 4]: 3250 ± 601 ng/g; concentration at 24 h [1, 8]: 162 ± 15.3 ng/mL; concentration at 24 h [1, 12]: 64.9 ± 19.9 ng/g

Further lines, with some results ahead:

Row | concentration at 6 h [1, 3] | concentration at 1 h [1, 5] | concentration at 6 h [1, 6] | concentration at 12 h [1, 7] | concentration at 1 h [1, 9] | concentration at 6 h [1, 10] | concentration at 12 h [1, 11] | concentration at 6 h [2, 13] | concentration at 6 h [2, 14] | SMILES | further results
5 |  |  |  |  |  |  |  | 5640 ± 588 ng/g | 2270 ± 201 ng/mL | CCN(C)S(=O)(=O)Nc1ccc(F)c(Oc2ccc3ncc(OC4CC5(CCN(C6CCC(c7cc8c(cc7F)c(N7CCC(=O)NC7=O)nn8C)CC6)CC5)C4)nc3c2)c1C#N (single isomer, unassigned) [Compound 218, 7-[2-cyano-3-[[ethyl(methyl)sulfamoyl]amino]-6-fluoro-phenoxy]-2-[[7-[4-[3-(2,4-dioxohexahydropyrimidin-1-yl)-5-fluoro-1-methyl-indazol-6-yl]cyclohexyl]-7-azaspiro[3.5]nonan-2-yl]oxy]quinoxaline] | 
6 |  |  |  |  |  |  |  | 1910 ± 169 ng/g | 5070 ± 270 ng/mL | Cn1nc(N2CCC(=O)NC2=O)c2cc(F)c(N3CC4(CC(N5CCC6(CC5)C[C@@H](n5cnc7ccc(Oc8c(F)ccc(NS(=O)(=O)N9CC[C@@H](F)C9)c8C#N)cc7c5=O)CO6)C4)C3)cc21 [Compound 133, (3R)-N-[2-cyano-3-[3-[(3R)-8-[2-[3-(2,4-dioxohexahydropyrimidin-1-yl)-5-fluoro-1-methyl-indazol-6-yl]-2-azaspiro[3.3]heptan-6-yl]-1-oxa-8-azaspiro[4.5]decan-3-yl]-4-oxo-quinazolin-6-yl]oxy-4-fluoro-phenyl]-3-fluoro-pyrrolidine-1-sulfonamide] | 
7 |  |  |  |  |  |  |  | 2470 ± 252 ng/g | 14700 ± 2220 ng/mL | CO[C@@H]1CCN(S(=O)(=O)Nc2ccc(F)c(Oc3ccc4ncn([C@H]5COC6(CCN(C7CC8(C7)CN(c7cc9c(cc7F)c(N7CCC(=O)NC7=O)nn9C)C8)CC6)C5)c(=O)c4c3)c2C#N)C1 [Compound 144, (3R)-N-[2-cyano-3-[3-[(3R)-8-[2-[3-(2,4-dioxohexahydropyrimidin-1-yl)-5-fluoro-1-methyl-indazol-6-yl]-2-azaspiro[3.3]heptan-6-yl]-1-oxa-8-azaspiro[4.5]decan-3-yl]-4-oxo-quinazolin-6-yl]oxy-4-fluoro-phenyl]-3-methoxy-pyrrolidine-1-sulfonamide] | 
8 |  |  |  |  |  |  |  | 2450 ± 217 ng/g | 12500 ± 745 ng/mL | CO[C@H]1CCN(S(=O)(=O)Nc2ccc(F)c(Oc3ccc4ncn([C@H]5COC6(CCN(C7CC8(C7)CN(c7cc9c(cc7F)c(N7CCC(=O)NC7=O)nn9C)C8)CC6)C5)c(=O)c4c3)c2C#N)C1 [Compound 157, (3S)-N-[2-cyano-3-[3-[(3R)-8-[2-[3-(2,4-dioxohexahydropyrimidin-1-yl)-5-fluoro-1-methyl-indazol-6-yl]-2-azaspiro[3.3]heptan-6-yl]-1-oxa-8-azaspiro[4.5]decan-3-yl]-4-oxo-quinazolin-6-yl]oxy-4-fluoro-phenyl]-3-methoxy-pyrrolidine-1-sulfonamide] | 
9 |  |  |  |  |  |  |  | 3320 ± 479 ng/g | 7640 ± 799 ng/mL | CCN(C)S(=O)(=O)Nc1ccc(F)c(Oc2ccc3ncn(C4CC5(CCN(C6CC7(CCN(c8cc9c(cc8F)c(N8CCC(=O)NC8=O)nn9C)CC7)C6)CC5)C4)c(=O)c3c2)c1C#N (centres unmarked) [Compound 198, 6-[2-cyano-3-[[ethyl(methyl)sulfamoyl]amino]-6-fluoro-phenoxy]-3-[7-[7-[3-(2,4-dioxohexahydropyrimidin-1-yl)-5-fluoro-1-methyl-indazol-6-yl]-7-azaspiro[3.5]nonan-2-yl]-7-azaspiro[3.5]nonan-2-yl]-4-oxo-quinazoline] | 
